The subject of this series is diamondback moth (Plutella xylostella). The series is described as follows: Test Example 1: cabbage seedling spray test against diamondback moth larvae. It counts as in vivo. The following applies: 500 ppm diluted solution sprayed on cabbage seedling, 20 mL/seedling; five second instar larvae; 25° C. for 5 days. Here is the method: Thirty-five (35) parts of a mixture of polyoxyethylene alkyl ether sulfate ammonium salt and wet silica (weight ratio of 1:1), 20 parts of the compound A, and 45 parts of water were mixed thoroughly. The resulting mixture was diluted with water containing 0.03 v/v % of Shindain (registered trademark) to prepare a diluted solution containing 500 ppm of the compound A. The diluted solution was sprayed into the cabbage (Brassicae oleracea) seedling (on the developmental stage of the second to third true leaf) that is planted in a container in a ratio of 20 mL/seedling.
Thereafter, the stem and leaf of thereof was cut out and then was installed into the container that was covered with the filter paper. Five second instar larvae of diamondback moth (Plutella xylostella) were released into the container, and the container was allowed to stand at 25° C. for 5 days. Thereafter, the surviving insects were counted, and the mortality was calculated from the following equation, and as a result, the mortality was 100%. Mortality (%)=(1−Number of the surviving insects/5)×100
The test was carried out according to Test Example 1 using the compound B instead of the compound A. As a result, the mortality was 0%.

The results in this text go back to patent publication US12022833B2, “Uracil compound and composition for controlling harmful arthropods comprising the same” (Sumitomo Chemical Company, Limited, priority 2018, dated 2024).

Each structure is given as a SMILES string.

With `COC(=O)COC(=O)COc1ncccc1Oc1cc(-n2c(=O)cc(C(F)(F)F)n(C)c2=O)c(F)cc1Cl` [Compound B], the Mortality turned out to be 0%.

`CCOC(=O)COC(=O)COc1ncccc1Oc1cc(-n2c(=O)cc(C(F)(F)F)n(C)c2=O)c(F)cc1Cl` [Compound A] gave a Mortality of 100%.
